This is an account of results in US7659299B2, “Compounds inhibiting the binding of sap for treating osteoarthritis” (Pentraxin Therapeutics Limited, priority 2003, dated 2010).

The target of experiment [1] is T1, SAP (Homo sapiens, UniProt P02743). In words: Inhibition of binding of 125I radiolabelled SAP to Neisseria meningitidis immobilized in microtitre plates. Set-up: 5 μl of radiolabelled SAP in TN; from tissue. To be noted: read-out: Percent inhibition of binding of radiolabelled SAP to immobilized Neisseria meningitidis.
T1 sequence (P02743 20-223): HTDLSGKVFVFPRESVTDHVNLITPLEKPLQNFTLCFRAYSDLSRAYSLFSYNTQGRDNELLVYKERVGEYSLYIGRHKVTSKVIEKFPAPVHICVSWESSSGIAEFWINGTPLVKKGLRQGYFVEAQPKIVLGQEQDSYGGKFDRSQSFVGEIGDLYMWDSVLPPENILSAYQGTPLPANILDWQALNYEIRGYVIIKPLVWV
For experiment [2], the target named is T1, SAP. The experiment in a line: Inhibition of binding of 125I radiolabelled SAP to native long chromatin immobilized in microtitre plates. Further details: 5 μl of radiolabelled SAP in TN; from tissue. To be noted: read-out: Percent inhibition of binding of radiolabelled SAP to immobilized native long chromatin.

As to `O=C(O)[C@H]1CCCN1C(=O)CCCCC(=O)N1CCC[C@@H]1C(=O)O` [Ro-63-8695, (R)-1-[6-[(R)-2-Carboxy-pyrrolidin-1-yl]-6-oxo-hexanoyl]pyrrolidine-2-carboxylic acid], the inhibition (as a rule, how much of the control response was suppressed) at 0.2 µM on SAP [1] (compound 200 nM) turned out to be 5%; at SAP [2] (compound 200 nM) it was 1%. Further, the inhibition at 2 µM was found to be 61% at SAP [1] (compound 2 μM) and 29% on SAP [2] (compound 2 μM). In addition, the results for the inhibition at 20 µM at SAP [1] (compound 20 μM) and on SAP [2] (compound 20 μM) were 74% and 69%, respectively. In addition, the figures for the inhibition at 200 µM at SAP [1] (compound 200 μM) and on SAP [2] (compound 200 μM) were 79% and 87%, respectively. Further, the inhibition at 2000 µM on SAP [1] (compound 2 mM) was found to be 100%; at SAP [2] (compound 2 mM), 93%.
